Data reported in US20130156932A1, “Method of increasing the milk and/or meat quantity of silage-fed animals” (BASF SE, priority 2007, published 2013).

How the values were obtained:
Type in all cases: in vivo, Zea mays (maize)
[1] = tested on: corn; assay: Corn silage strip trials Wisconsin 2006: NIRS forage quality and MILK 2006 calculated milk production
Method: (§1) Field trials were conducted as strip trials in farm fields in 2006 and 2008. A part of the field was treated with pyraclostrobin applied as Headline® whereas another part was left untreated. Headline® was applied at tassel emergence with 0.44 L/ha (110 g pyraclostrobin per ha) by aerial or ground application with a high clearance sprayer. Total spray volume was 93.5 to 187 L/ha for ground application and 18.7 to 46.7 L/ha for aerial application, respectively. Water was used as a carrier to prepare the spray mixture.
(§2) Trials were harvested using a commercial forage harvester when the corn crop reached a dry matter content of about 30 to 40%. The treated and untreated area of the field was harvested separately to gain total biomass yield (ton/acre). Subsequently, the harvested plant material was used for producing silage.
(§3) Forage samples from the harvested plants were taken from both the treated and untreated areas of the field. Samples were taken from the harvested material in the forage wagon following chopping with the commercial harvester. Multiple forage samples were taken for each of both treatments manually during harvesting in each of the trials, mixed in a larger container, and a subsample of 1.3 to 2.25 kg was taken. The subsamples were placed in plastic bags, sealed, cooled, and shipped immediately to Agsource Soil and Forage Laboratory, 106 North Cecil Street, Bonduel Wis. 54107, USA for Near Infrared Reflectance Spectroscopy (NIRS) analysis.
Typically, samples for NIRS analysis are first dried at 55 to 65° C. for 24 h to 48 h prior to analysis. A representative subsample thereof is then dried at 105° C. for another 12 h to 24 h to evaluate the dry matter content of the samples. Subsequently, the remaining sample is grinded and homogenized and again a representative subsample is used for the NIRS analysis. The NIRS analysis procedure uses a commercially available calibration to estimate the values for each quality parameter based on the spectral reflectance information gained. […]

[2] = tested on: corn; assay: Corn silage strip trials Maryland 2006: NIRS forage quality and MILK 2006 calculated milk production
Method: as §1, §2, §3
Typically, samples for NIRS analysis are first dried at 55 to 65° C. for 24 h to 48 h prior to analysis. A representative subsample thereof is then dried at 105° C. for another 12 h to 24 h to evaluate the dry matter content of the samples. Subsequently, the remaining sample is grinded and homogenized and again a representative subsample is used for the NIRS analysis. The NIRS analysis procedure uses a commercially available calibration to estimate the values for each quality parameter based on the spectral reflectance information gained. The calibrations are based on the near infra red reflectance spectra of samples with known quality data. The comparison of the spectra of the samples with unknown quality data with the spectra of the known samples allows calculating estimates for each quality parameter of interest.
NIRS analysis provided dry matter, crude protein, Acid Detergent Fibre (ADF), Neutral Detergent Fibre (NDF), and starch data. Calculations were included for moisture, adjusted crude protein, Total Digestible Nutrients (TDN), Net Energy for Lactation (NEL), Net Energy for Gain (NEG) and protein solubility.
The information was then entered into the MILK 2006 University of Wisconsin Corn Silage evaluation system. Calculations of the milk production, energy content and digestibility per ton of corn biomass were carried out using a calculation method described in:
a) Schwab, E. C., and R. D. Shaver. 2001: “Evaluation of corn silage nutritive value using MILK2000” (pages 21-24) in Proc. of 25th Forage Production and Use Symposium. WI Forage Council Annual Mtg. Eau Claire, Wis.
b) Schwab, E. C., R. D. Shaver. J. G. Lauer, and J. G. Coors. 2003: “Estimating silage energy value and milk yield to rank corn hybrids”. J. Anim. Feed Sci. Technol. 109: 1-18. as well as in
c) Undersander, D. J., W. T. Howard, and R. D. Shaver. 1993: “Milk per acre spreadsheet for combining yield and quality into a single term”. J. Prod. Ag. 6: 231 235.
In 2006 a total of 16 strip trials were conducted in Queen Ann County, Md. Trial setup, treatments, application, harvesting, sampling and quality analysis including calculation of milk production per ton and per acre followed the procedure described before.

[3] = tested on: corn hybrid varieties; assay: Field trial Wisconsin 2008 with eight corn hybrids: calculated milk production per ton of harvested biomass
Method: as §1, §2
(§4) Forage samples from the harvested plants were taken from both the treated and untreated areas of the field. Samples were taken from the harvested material in the forage wagon following chopping with the commercial harvester. Multiple forage samples were taken for each of both treatments manually during harvesting in each of the trials, mixed in a larger container, and a subsample of 1.3 to 2.25 kg was taken. The subsamples were placed in plastic bags, sealed, cooled, and shipped immediately to Agsource Soil and Forage Laboratory, 106 North Cecil Street, Bonduel Wis. […]

[4] = tested on: corn; assay: Corn silage strip trials New York 2006: NIRS forage quality and MILK 2006 calculated milk production; settings: New York 2006, pyraclostrobin vs untreated
Method: as §1, §2, §4

[5] = Wisconsin 2006, pyraclostrobin vs untreated
[6] = Maryland 2006, pyraclostrobin vs untreated

SMILES: COC(=O)N(OC)c1ccccc1COc1ccn(-c2ccc(Cl)cc2)n1 [Pyraclostrobin, pyraclostrobin]
- crude protein content (% CP) ([1]; Wisconsin 2006, average of 7 strip trials, 110 g pyraclostrobin per ha): 7.5%
- % CP, % Difference to Untreated [1, 5]: +4.2%
- Milk (kg/t), % Difference to Untreated [1, 5]: +14.0%
- total digestible nutrients as percent of dry matter (TDN % of DM) ([2]; Maryland 2006, average of 16 strip trials, 110 g pyraclostrobin per ha): 70.0 % of DM
- crude protein content (% CP) ([2]; Maryland 2006, average of 16 strip trials, Headline at tassel emergence, 110 g pyraclostrobin per ha): 7.1%
- % CP, % Difference to Untreated [2, 6]: +6.0%
- % NDF, % Difference to Untreated [2, 6]: −4.8%
- % NDFD, % Difference to Untreated [2, 6]: +3.9%
- Milk (kg/t), % Difference to Untreated [2, 6]: +5.9%
- TDN % of DM, % Difference to Untreated [2, 6]: +3.6%
- Calculated milk production, Milk (kg/t) ([3]; Example 4.6, hybrid DS93VT3, Wisconsin 2008): 1600 kg/t
- milk production per ton of harvested corn biomass used to produce silage ([3]; across the eight tested different corn hybrids, result in words): improves the milk production
- % CP, % Difference to Untreated [4]: +6.0%
- % Dry Matter, % Difference to Untreated [4]: −2.2%
